According to US20220175728A1, “PHARMACEUTICAL USE OF CHLOROPHYLLIDE FOR ANTI-VIRAL INFECTION” (I-SHOU UNIVERSITY, priority 2020, published 2022):

How the values were obtained:
Format in all cases: cell-based
[1] = system: chikungunya virus; assay: Chikungunya micro-neutralization test; conditions: Vero cells, MOI 0.001, 3 days
Protocol: (§1) African green monkey kidney Vero cells were infected with chikungunya virus at an MOI of 0.001 in the presence of chlorophyllide at indicated dosages, and then incubated for 3 days, followed by the micro-neutralization test.

[2] = system: African green monkey kidney Vero cells; assay: Cytotoxicity, control group of chikungunya micro-neutralization test; conditions: 3 days
Protocol: as §1

[3] = system: Zika virus; assay: Zika micro-neutralization test; conditions: Vero cells, MOI 0.1, 4 to 5 days
Protocol: (§2) African green monkey kidney Vero cells were infected with Zika virus at an MOI of 0.1 in the presence of chlorophyllide at indicated dosages, and then incubated for 4 to 5 days, followed by the micro-neutralization test.

[4] = system: African green monkey kidney Vero cells; assay: Cytotoxicity, control group of Zika micro-neutralization test; conditions: 4 to 5 days
Protocol: as §2

**Q.** Which “EC50 for antiviral activity against chikungunya” value [1] does the source give for chlorophyllide here?
**A.** The value was 18.75 µg/mL.

**Q.** And the cytotoxicity dose [2]?
**A.** The cytotoxicity dose was “greater than 100 μg/mL”.

**Q.** And the “EC50 for antiviral activity against Zika” value [3]?
**A.** The value was 12.5 µg/mL.

**Q.** What about the cytotoxicity dose [4] of the same substance?
**A.** Its cytotoxicity dose is “greater than 100 μg/mL”.
